The values below come from patent publication US10047098B2, “C5-C6-oxacyclic fused iminopyrimidinone compounds as bace inhibitors, compositions, and their use” (Merck Sharp & Dohme Corp., priority 2014, dated 2018).

The target of assay [1] is purified human autoBACE-2 (Homo sapiens (Human), UniProt Q9Y5Z0). Kind of assay: BACE-2 Assay (BACE-HTRF assay). The class given is biochemical. The note with it: Ki calculated from IC50 using the Cheng-Prusoff equation; QSY7-EISEVNLDAEFC-Eu-amide substrate, pH 5.0. As for the experimental part:
Inhibitor IC50s at purified human autoBACE-2 are determined in a time-resolved endpoint proteolysis assay that measures hydrolysis of the QSY7-[…]-Eu-amide FRET peptide substrate (BACE-HTRF assay). […] DMSO is present at 5% final concentration in the assay. Following laser excitation of sample wells at 320 nm, the fluorescence signal at 620 nm is collected for 400 ms following a 50 μs delay on a RUBYstar HTRF plate reader (BMG Labtechnologies). Raw RFU data is normalized to maximum (1.0 nM BACE/DMSO) and minimum (no enzyme/DMSO) RFU values. […] The Ki values are calculated from the IC50 using the Cheng-Prusoff equation.

In assay [2] the target is Recombinant human soluble BACE1 catalytic domain (Homo sapiens (Human), UniProt P56817). Kind of assay: BACE1 HTRF FRET Assay. It counts as biochemical. As to conditions: Ki calculated from IC50 using the Cheng-Prusoff equation; QSY7-APPswe-Eu substrate, pH 5.0; read-out: BACE-1 Ki. An excerpt: Reagents: Na^+-Acetate pH 5.0; 1% Brij-35; Glycerol; Dimethyl Sulfoxide (DMSO); Recombinant human soluble BACE1 catalytic domain (>95% pure); APP Swedish mutant peptide substrate (QSY7-APP^swe-Eu): QSY7-EISEVNLDAEFC-Europium-amide.
A homogeneous time-resolved FRET assay can be used to determine IC50 values for inhibitors of the soluble human BACE1 catalytic domain. This assay monitors the increase of 620 nm fluorescence that resulted from BACE1 cleavage of an APPswedish APP^swe mutant peptide FRET substrate (QSY7-EISEVNLDAEFC-Europium-amide). This substrate contains an N-terminal QSY7 moiety that serves as a quencher of the C-terminal Europium fluorophore (620 nm Em). In the absence of enzyme activity, 620 nm fluorescence is low in the assay and increased linearly over 3 hours in the presence of uninhibited BACE1 enzyme. Inhibition of BACE1 cleavage of the QSY7-APP^swe-Eu substrate by inhibitors is manifested as a suppression of 620 nm fluorescence.
Varying concentrations of inhibitors at 3× the final desired concentration in a volume of 10 ul are preincubated with purified human BACE1 catalytic domain (3 nM in 10 μl) for 30 minutes at 30° C. in reaction buffer containing 20 mM Na-Acetate pH 5.0, 10% glycerol, 0.1% Brij-35 and 7.5% DSMO. Reactions are initiated by addition of 10 μl of 600 nM QSY7-APP^swe-Eu substrate (200 nM final) to give a final reaction volume of 30 μl in a 384 well Nunc HTRF plate. The reactions are incubated at 30° C. for 1.5 hours. The 620 nm fluorescence is then read on a Rubystar HTRF plate reader (BMG Labtechnologies) using a 50 millisecond delay followed by a 400 millisecond acquisition time window. Inhibitor IC50 values are derived from non-linear regression analysis of concentration response curves. Ki values are then calculated from IC50 values using the Cheng-Prusoff equation using a previously determined […] of 8 μM for the QSY7-APP^swe-Eu substrate at BACE1.

Structures are written as SMILES. pKi: −log10 of the molar value.

purified human autoBACE-2, sequence (Q9Y5Z0 63-473 limits assumed): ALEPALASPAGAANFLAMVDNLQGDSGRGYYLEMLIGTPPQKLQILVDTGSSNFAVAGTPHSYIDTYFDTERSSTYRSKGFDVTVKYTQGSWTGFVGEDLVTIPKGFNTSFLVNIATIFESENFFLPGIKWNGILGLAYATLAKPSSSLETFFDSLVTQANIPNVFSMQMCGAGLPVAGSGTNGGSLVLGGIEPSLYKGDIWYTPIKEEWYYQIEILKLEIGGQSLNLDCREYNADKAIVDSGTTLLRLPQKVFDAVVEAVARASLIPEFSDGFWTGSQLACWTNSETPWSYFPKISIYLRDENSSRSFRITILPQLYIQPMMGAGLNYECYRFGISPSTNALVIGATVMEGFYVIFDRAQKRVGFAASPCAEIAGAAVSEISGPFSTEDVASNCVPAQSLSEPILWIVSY
Recombinant human soluble BACE1 catalytic domain, sequence (P56817 75-416): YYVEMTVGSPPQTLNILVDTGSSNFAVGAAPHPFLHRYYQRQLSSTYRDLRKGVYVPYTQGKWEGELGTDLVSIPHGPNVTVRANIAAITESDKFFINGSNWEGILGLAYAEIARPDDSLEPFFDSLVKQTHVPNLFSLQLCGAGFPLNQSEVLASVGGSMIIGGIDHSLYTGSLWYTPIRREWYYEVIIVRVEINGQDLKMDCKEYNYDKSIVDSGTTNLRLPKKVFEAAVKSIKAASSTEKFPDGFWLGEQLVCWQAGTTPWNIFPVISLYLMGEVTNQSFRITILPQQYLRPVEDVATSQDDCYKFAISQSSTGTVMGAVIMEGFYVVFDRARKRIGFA

The pKi is the Ki on a negative log10 scale, so that one unit is a factor of ten. As for `C[C@H]1C[C@H]2C(=O)N(C)C(=N)N[C@@]2(c2ccc(F)cc2F)CO1` [Example 11, (4aR,65,8aS)-8a-(2,4-difluorophenyl)-2-imino-3,6-dimethylhexahydro-1H-pyrano[3,4-d]pyrimidin-4(4aH)-one], the pKi in assay [1] is 6.98; in assay [2] it was 6.96.
On to `CN1C(=N)N[C@@]2(c3cc(Oc4cc(-n5cccn5)ncn4)ccc3F)CO[C@@H](C3CC3)C[C@H]2C1=O` [Example 13, (4aR,6R,8aS)-8a-(5-((6-(1H-pyrazol-1-yl)pyrimidin-4-yl)oxy)-2-fluorophenyl)-6-cyclopropyl-2-imino-3-methylhexahydro-1H-pyrano[3,4-d]pyrimidin-4(4aH)-one], for which the pKi in assay [1] was 7.64; in assay [2] it was 7.28.
The matching figures for `CN1C(=N)N[C@@]2(c3cc(Oc4cc(C#N)ccn4)ccc3F)CO[C@@H](C3CC3)C[C@H]2C1=O` [Example 14, 2-(3-((4aR,6R,8aS)-6-cyclopropyl-2-imino-3-methyl-4-oxohexahydro-1H-pyrano[3,4-d]pyrimidin-8a(8H)-yl)-4-fluorophenoxy)isonicotinonitrile]: 7.89 and 8.70.
On the same counts, the results for `CN1C(=N)N[C@@]2(c3cc(Oc4ncccc4F)ccc3F)CO[C@@H](C3CC3)C[C@H]2C1=O` [Example 15, (4aR,6R,8aS)-6-cyclopropyl-8a-(2-fluoro-5-((3-fluoropyridin-2-yl)oxy)phenyl)-2-imino-3-methylhexahydro-1H-pyrano[3,4-d]pyrimidin-4(4aH)-one] are 8.10 and 8.70.
The matching figures for `CN1C(=N)N[C@@]2(c3cc(Oc4ccnc(-n5cncn5)c4)ccc3F)CO[C@@H](C3CC3)C[C@H]2C1=O` [Example 16, (4aR,6R,8aS)-8a-(5-((2-(1H-1,2,4-triazol-1-yl)pyridin-4-yl)oxy)-2-fluorophenyl)-6-cyclopropyl-2-imino-3-methylhexahydro-1H-pyrano[3,4-d]pyrimidin-4(4aH)-one]: 7.38 and 7.37.
As to `Cc1cncc(Oc2ccc(F)c([C@]34CO[C@@H](C5CC5)C[C@H]3C(=O)N(C)C(=N)N4)c2)n1` [Example 17, (4aR,6R,8aS)-6-cyclopropyl-8a-(2-fluoro-5-((6-methylpyrazin-2-yl)oxy)phenyl)-2-imino-3-methylhexahydro-1H-pyrano[3,4-d]pyrimidin-4(4aH)-one], the negative logarithm of the Ki (pKi) in assay [1] was 6.99; in assay [2], 7.92.
On the same counts, the results for `CN1C(=N)N[C@@]2(c3cc(Oc4ncc(F)cc4F)ccc3F)CO[C@@H](C3CC3)C[C@H]2C1=O` [Example 18, (4aR,6R,8aS)-6-cyclopropyl-8a-(5-((3,5-difluoropyridin-2-yl)oxy)-2-fluorophenyl)-2-imino-3-methylhexahydro-1H-pyrano[3,4-d]pyrimidin-4(4aH)-one] are 6.96 and 7.96.
On the same counts, the results for `C[C@H]1C[C@H]2C(=O)N(C)C(=N)N[C@@]2(c2cc(Oc3ncccc3F)ccc2F)CO1` [Example 19, (4aR,6S,8aS)-8a-(2-fluoro-5-((3-fluoropyridin-2-yl)oxy)phenyl)-2-imino-3,6-dimethylhexahydro-1H-pyrano[3,4-d]pyrimidin-4(4aH)-one] are 8.30 and 8.15.
As to `CN1C(=N)N[C@@]2(c3cc(Oc4ccnc(C(F)F)c4)ccc3F)CO[C@@H](C3CC3)C[C@H]2C1=O` [Example 20], the pKi in assay [1] was 6.64; in assay [2], 7.22.
The matching figures for `C[C@H]1C[C@H]2C(=O)N(C)C(=N)N[C@@]2(c2cc(Oc3cc(C#N)ccn3)ccc2F)CO1` [Example 21, 2-(4-fluoro-3-((4aR,6S,8aS)-2-imino-3,6-dimethyl-4-oxohexahydro-1H-pyrano[3,4-d]pyrimidin-8a(8H)-yl)phenoxy)isonicotinonitrile]: 8.22 and 8.22.
On the same counts, the results for `Cc1nccc(Oc2ccc(F)c([C@]34CO[C@@H](C5CC5)C[C@H]3C(=O)N(C)C(=N)N4)c2)n1` [Example 22, (4aR,6R,8aS)-6-cyclopropyl-8a-(2-fluoro-5-((2-methylpyrimidin-4-yl)oxy)phenyl)-2-imino-3-methylhexahydro-1H-pyrano[3,4-d]pyrimidin-4(4aH)-one] are 6.74 and 7.24.
On the same counts, the results for `C[C@H]1C[C@H]2C(=O)N(C)C(=N)N[C@@]2(c2cc(OCC3CC3)ccc2F)CO1` [Example 23, (4aR,6S,8aS)-8a-(5-(cyclopropylmethoxy)-2-fluorophenyl)-2-imino-3,6-dimethylhexahydro-1H-pyrano[3,4-d]pyrimidin-4(4aH)-one] are 8.10 and 7.89.
In the case of `CN1C(=N)N[C@@]2(c3cc(OCC4CC4)ccc3F)CO[C@@H](C3CC3)C[C@H]2C1=O` [Example 24, (4aR,6R,8aS)-6-cyclopropyl-8a-(5-(cyclopropylmethoxy)-2-fluorophenyl)-2-imino-3-methylhexahydro-1H-pyrano[3,4-d]pyrimidin-4(4aH)-one], the pKi in assay [1] is 8.00; in assay [2], 7.96.
On to `CN1C(=N)N[C@@]2(c3cc(Oc4cccc(C#N)c4)ccc3F)CO[C@@H](C3CC3)C[C@H]2C1=O` [Example 25, 3-(3-((4aR,6R,8aS)-6-cyclopropyl-2-imino-3-methyl-4-oxohexahydro-1H-pyrano[3,4-d]pyrimidin-8a(8H)-yl)-4-fluorophenoxy)benzonitrile], for which the pKi in assay [1] was 7.34; in assay [2], 7.57.
The matching figures for `C[C@H]1C[C@H]2C(=O)N(C)C(=N)N[C@@]2(c2cc(OCC34CC(C#N)(C3)C4)ccc2F)CO1` [Example 26, 3-((4-fluoro-3-((4aR,6S,8aS)-2-imino-3,6-dimethyl-4-oxohexahydro-1H-pyrano[3,4-d]pyrimidin-8a(8H)-yl)phenoxy)methyl)bicyclo[1.1.1]pentane-1-carbonitrile]: 7.01 and 8.10.
On the same counts, the results for `CN1C(=N)N[C@@]2(c3cc(Oc4cncc(C#N)c4)ccc3F)CO[C@@H](C3CC3)C[C@H]2C1=O` [Example 27, 5-(3-((4aR,6R,8aS)-6-cyclopropyl-2-imino-3-methyl-4-oxohexahydro-1H-pyrano[3,4-d]pyrimidin-8a(8H)-yl)-4-fluorophenoxy)nicotinonitrile] are 7.29 and 8.00.
With `CN1C(=N)N[C@@]2(c3cc(-c4cncnc4)ccc3F)CO[C@@H](C3CC3)C[C@H]2C1=O` [Example 28, (4aR,6R,8aS)-6-cyclopropyl-8a-(2-fluoro-5-(pyrimidin-5-yl)phenyl)-2-imino-3-methylhexahydro-1H-pyrano[3,4-d]pyrimidin-4(4aH)-one], the pKi in assay [1] was 6.20; in assay [2], 6.87.
The matching figures for `CN1C(=N)N[C@@]2(c3cc(Oc4cncc(C(F)F)n4)ccc3F)CO[C@@H](C3CC3)C[C@H]2C1=O` [Example 29, (4aR,6R,8aS)-6-cyclopropyl-8a-(5-((6-(difluoromethyl)pyrazin-2-yl)oxy)-2-fluorophenyl)-2-imino-3-methylhexahydro-1H-pyrano[3,4-d]pyrimidin-4(4aH)-one]: 7.27 and 7.80.
For the molecule `COC[C@H]1C[C@H]2C(=O)N(C)C(=N)N[C@@]2(c2cc(Oc3cc(C#N)ccn3)ccc2F)CO1` [Example 30, 2-(4-fluoro-3-((4aR,6R,8aS)-2-imino-6-(methoxymethyl)-3-methyl-4-oxohexahydro-1H-pyrano[3,4-d]pyrimidin-8a(8H)-yl)phenoxy)isonicotinonitrile], the negative-log Ki (pKi) is 7.60 in assay [1] and 8.52 in assay [2].
On the same counts, the results for `COC[C@H]1C[C@H]2C(=O)N(C)C(=N)N[C@@]2(c2cc(Oc3ncccc3F)ccc2F)CO1` [Example 31, (4aR,6R,8aS)-8a-(2-fluoro-5-((3-fluoropyridin-2-yl)oxy)phenyl)-2-imino-6-(methoxymethyl)-3-methylhexahydro-1H-pyrano[3,4-d]pyrimidin-4(4aH)-one] are 8.10 and 8.40.
